Reference: the NIST ThermoML archive (doi:10.1016/j.jct.2012.08.021)
Numbers after ± are expanded uncertainties.

Experiments:
[1] = xn = mol fraction of the nth substance listed; conditions: 101 kPa, Liquid, Vibrating tube method, x2 = 0
[2] = 101 kPa, Liquid, Vibrating tube method

C[S+](C)[O-] [dimethyl sulfoxide] + CN(CCO)CCO
[1]
Conditions	mass density [kg/m3]
293.14 K	1100.87 ± 0.31
303.15 K	1090.81 ± 0.3
313.14 K	1080.77 ± 0.29
323.14 K	1070.73 ± 0.29
333.15 K	1060.68 ± 0.28
343.14 K	1050.62 ± 0.27
353.14 K	1040.54 ± 0.26
363.15 K	1030.43 ± 0.25

NCCO [2-aminoethan-1-ol]
[2]
Conditions	mass density [kg/m3]
293.16 K	1016.34 ± 0.24
303.14 K	1008.4 ± 0.24
313.14 K	1000.41 ± 0.23
323.15 K	992.384 ± 0.23
333.14 K	984.302 ± 0.23
343.14 K	976.141 ± 0.23
353.14 K	967.893 ± 0.23
363.15 K	959.536 ± 0.23

OCCNCCO [diethanolamine]
[2]
Conditions	mass density [kg/m3]
293.15 K	1097.61 ± 0.31
303.15 K	1091.17 ± 0.3
313.15 K	1084.6 ± 0.3
323.15 K	1077.88 ± 0.29
333.14 K	1071.11 ± 0.29
343.14 K	1064.25 ± 0.28
353.14 K	1057.31 ± 0.28
363.15 K	1050.24 ± 0.27

CN(CCO)CCO [N-methyldiethanolamine]
[2]
Conditions	mass density [kg/m3]
293.15 K	1040.6 ± 0.92
303.15 K	1033.02 ± 0.91
313.15 K	1025.4 ± 0.89
323.15 K	1017.74 ± 0.87
333.15 K	1010.03 ± 0.86
343.15 K	1002.25 ± 0.84
353.14 K	994.404 ± 0.83
363.15 K	986.471 ± 0.82

C[S+](C)[O-] [dimethyl sulfoxide]
[2]
Conditions	mass density [kg/m3]
293.14 K	1100.87 ± 0.31
303.15 K	1090.81 ± 0.3
313.14 K	1080.77 ± 0.29
323.14 K	1070.73 ± 0.29
333.15 K	1060.68 ± 0.28
343.14 K	1050.62 ± 0.27
353.14 K	1040.54 ± 0.26
363.15 K	1030.43 ± 0.25

C[S+](C)[O-] [dimethyl sulfoxide] + NCCO
[1]
Conditions	mass density [kg/m3]
293.14 K	1100.87 ± 0.31
303.15 K	1090.81 ± 0.3
313.14 K	1080.77 ± 0.29
323.14 K	1070.73 ± 0.29
333.15 K	1060.68 ± 0.28
343.14 K	1050.62 ± 0.27
353.14 K	1040.54 ± 0.26
363.15 K	1030.43 ± 0.25

C[S+](C)[O-] [dimethyl sulfoxide] + OCCNCCO
[1]
Conditions	mass density [kg/m3]
293.14 K	1100.87 ± 0.31
303.15 K	1090.81 ± 0.3
313.14 K	1080.77 ± 0.29
323.14 K	1070.73 ± 0.29
333.15 K	1060.68 ± 0.28
343.14 K	1050.62 ± 0.27
353.14 K	1040.54 ± 0.26
363.15 K	1030.43 ± 0.25
